Data taken from patent US20100130476A1, “COMPOUNDS THAT INDUCE PANCREATIC BETA-CELL EXPANSION” (The Scripps Research Institute, priority 2008, published 2010).
pEC50, pIC50: −log10 of the molar value. Entries after “also recorded” stand apart in the source; their conditions may differ. Blank lines part the entries; values can stand above or below the compound they belong to.

Tests used:
[1] = tested on: growth-arrested R7T1 β cells; assay: R7T1 β-cell proliferation, CellTiter Glo assay (high-throughput screen and follow-up); format: cell-based, mouse; conditions: for expansion of the pancreatic β-cell population: high-throughput screen, CellTiter Glo at Day 8, screen concentration 1.25 μM
Procedure: (§1) R7T1 β-cells are expanded in growth medium (DMEM with 15% horse serum and 2.5% FBS) in the presence of 10 μg/ml doxycycline. (3TC-tet cells are expanded in growth medium (DMEM with 15% horse serum and 2.5% FBS) in the absence of 10 μg/ml doxycycline. Hamster HIT-T15 β-cells are grown in F12 medium with 15% horse serum and 2.5% FBS. MIN6 cells are cultured in DMEM with 15% FBS. HEK293 cells are grown according to instructions from ATCC (http://www.atcc.org/).
R7T1 β-cells are expanded in large quantities in growth medium in the presence of 10 μg/ml doxycycline and then are growth arrested by removal of doxycycline for one week. For the primary screen, growth-arrested cells are plated onto 384- or 1536-well plates in growth medium without doxycycline at a density of 4000 cells/well in 384-well plate or 1000 cells/well in 1536-well plate in an automated high-throughput screening platform (designated as Day 0). […] For data analysis, the median of a plate is calculated and the activity of each well is the signal/median of the plate. A signal in any well over 1.5 of the median is regarded as a primary hit. For the reconfirmation screen, growth-arrested R7T1 cells are plated onto 384-well plates and screened against all primary hits in quadruplicate. To eliminate tetracycline mimetics among all reconfirmed primary hits, βTC-tet cells are plated onto 384-well plates at a density of 2000 cells/well in growth medium in the presence of 10 μg/ml doxycycline, and 1.25 μM compound is added after overnight incubation and refreshed 4 days later. The effects on β-cell replication are then determined at Day 8 using the CellTiter Glo assay system. Any compound that increases the readings more than 1.5 fold is regarded as a hit.
SV40 T antigen (TAg) oncoprotein under the control of the Tet-On system was used to immortalize mouse β cells so that these engineered β cells proliferate when TAg is induced in the presence of tetracycline (Tet), but undergo growth arrest upon withdrawal of Tet (see, Efrat S, et al., Proc. Natl. Acad. Sci. USA 92:3576-3580 (1995); Fleischer N, et al, Diabetes 47:1419-1425 (1998); and Milo-Landesman D, et al., Cell Transplant. 10:645-650 (2001)). Although not a true mimic of in vivo quiescent β cells, this system should allow us to identify small molecules that are able to induce reentry into cell cycle and proliferation of growth-arrested cells. Indeed, these engineered cells express high levels of β-cell signature markers, including insulin 1, insulin 2, and Pdx1, and are able to secrete insulin and restore and maintain euglycemia in STZ-treated diabetic mice when induced to growth arrest and transplanted (see, Efrat S, et al., supra; and Milo-Landesman D, et al., supra). A total of ≈850,000 compounds were screened with an automated high-throughput screening platform for their ability to induce the proliferation of growth-arrested β cells in either a 384- or 1,536-well plate format. In the primary screen, proliferation was assayed by using a luminescent assay measuring intracellular ATP content, which is directly proportional to viable cell number (see, Materials and Methods). To rule out any possible Tet mimetics that induce the proliferation of β cells through the induction of SV40 TAg expression, the Tet-Off immortalized β-cell line βTC-Tet was used for a counterscreen.

rat primary β cells = assay: Primary β-cell proliferation assay, rat (C-peptide/Ki-67 double staining); format: cell-based; conditions: for increase in replicating primary rat β cells (Ki-67/C-peptide): 72 h, compared with DMSO; for increase in rat C-peptide/Ki-67 double positive β-cells: 72 hours (3 days), concentration not given
Procedure: (§2) Islets are isolated by the standard Liberase digestion method from the pancreata of adult Sprague-Dawley rats (200-250 g) (Liberase III; Roche Applied Science) and cultured in RPMI medium with 10% FBS. Briefly, 6 ml of ice-cold Liberase solution (Roche Applied Science) is injected into the pancreas via the common bile duct. After dissection, the pancreas is incubated for 35 minutes at 37° C. and then further dissociated by repeated pipetting using a 10-ml pipette. Islets are purified by Histopaque-1.077 (Sigma) density gradient centrifugation and are manually picked using a stereomicroscope. […] Human islets are obtained through the Juvenile Diabetes Research Foundation Islet Distribution Program by Islet Cell Resource Center in Minnesota, USA. The purity and viability of human islets are reported to be 30-70% and 50-70%, respectively. Human islets are cultured in CMRL medium containing 10% FBS.
(§3) Islets or single suspension cells are fixed with 4% formalin solution (Sigma) and stained by standard immuno-fluorescence techniques for C-peptide (anti-human C-peptide antibody from Raybiotech, Inc., and anti-rat C-peptide antibody from Linco, Inc.) and Ki-67 (anti-Ki-67 antibody from Abcam), a marker of proliferating cells. Nuclear DNA is stained with DAPI (Molecular Probes). At least 30,000 C-peptide positive cells are counted in each experiment, performed in triplicate. The images are taken on a Nikon Eclipse TE300 microscope with 200× magnification. Proliferating C-peptide/Ki-67 double positive β-cells are counted manually.

[2] = tested on: Super (8×) TOPFlash reporter; assay: Super (8×) TOPFlash Wnt reporter in HEK293 cells; format: cell-based
Procedure: (§4) (A) Chemical structures of 5-thiophene pyrimidines. […] Relative luminescence unit (RLU) was measured by CellTiter-Glo assay after 7-day incubation of growth-arrested R7T1 β cells with 1a, which was added at day 0 and refreshed at day 4; experiments were performed in quadruplicate. All data in this paper are presented as mean±SD, unless otherwise specified. (C) Dose-dependent effects of 1a on the activation of Super (8×) TOPFlash reporter. HEK293 cells transfected with Super (8×) TOPFlash reporter were treated with 1a at the indicated concentrations 24 h after transfection. Luciferase activity was measured 48 h after compound treatment. (D and E) The proliferative effect of 1a on rat primary β cells. (D) After incubation for 72 h with 2 μM 1a, replicating β cells were identified by double-immunofluorescence staining by using anti-C-peptide antibody to mark β cells (green) and antibody against Ki-67, a proliferation marker (red). Nuclear DNA was stained with DAPI (blue). (Scale bar, 10 μm.) (E) The percentage of Ki-67-positive cells of all C-peptide-positive cells, which corresponds to the fraction of replicating β cells. The number of proliferating primary β cells increased after incubation for 72 h in the presence of 2 μM 1a compared with DMSO control: 1a at 2 μM increases the replicating β cells ≈2-fold. (F) Compound 1a stimulates the translocation of β-catenin into the nucleus. Nuclear β-catenin accumulation (green arrows) was increased in 10 μM 1a-treated HEK293 cells; in DMSO-treated control cells, β-catenin staining is weak and appears to concentrate at the cell surface. […] CellTiter-Glo activity was measured 7 days after compound treatment.

[3] = tested on: Wnt reporter whose β-catenin/TCF binding sites are mutated; assay: Mutated Wnt reporter; format: cell-based; conditions: data not shown
GSK3-β = GSK3-β (Homo sapiens, UniProt P49841); assay: GSK3-β inhibition; format: biochemical; conditions: preliminary investigation
Chain of GSK3-β (P49841 whole entry, species assumed): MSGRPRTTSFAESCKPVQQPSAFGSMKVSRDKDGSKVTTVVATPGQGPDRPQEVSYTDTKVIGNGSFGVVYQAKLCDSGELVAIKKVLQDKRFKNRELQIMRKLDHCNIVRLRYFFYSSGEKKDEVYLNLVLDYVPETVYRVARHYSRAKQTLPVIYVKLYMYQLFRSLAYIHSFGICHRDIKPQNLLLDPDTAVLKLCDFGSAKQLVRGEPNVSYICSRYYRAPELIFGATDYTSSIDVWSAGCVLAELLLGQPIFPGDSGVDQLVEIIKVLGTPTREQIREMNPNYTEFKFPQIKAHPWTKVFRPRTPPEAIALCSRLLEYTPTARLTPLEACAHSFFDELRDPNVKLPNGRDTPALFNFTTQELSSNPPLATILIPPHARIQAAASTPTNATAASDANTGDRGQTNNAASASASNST

65 kinases = assay: Kinase profiling; format: biochemical; conditions: 5 μM; 65 kinases profiled
β-catenin = assay: Nuclear β-catenin translocation in HEK293 cells; format: cell-based; conditions: 10 μM, versus DMSO, listed as 1a
Procedure: as §4, with “≈2-fold.” for “≈2-fold. (F) Compound 1a stimulates the translocation of β-catenin into the nucleus. Nuclear β-catenin accumulation (green arrows) was increased in 10 μM 1a-treated HEK293 cells; in DMSO-treated control cells, β-catenin staining is weak and appears to concentrate at the cell surface.”

HIT-T15 β cells = assay: HIT-T15 β-cell proliferation (BrdU incorporation assay); format: cell-based, Hamster
Procedure: as §1

MIN6 cells [4] = assay: MIN6 β-cell proliferation (BrdU incorporation assay); format: cell-based
Procedure: as §1

human primary β cells = assay: Primary β-cell proliferation assay, human (C-peptide/Ki-67 double staining); format: cell-based
Procedure: as §2, §3

MIN6 cells [5] = assay: Calcium influx assay (fluo-3, FLIPR); format: cell-based; conditions: MIN6 β cells
Procedure: Calcium Influx Assay.Measurement of intracellular Ca^2+ ([Ca^2+]i) was performed by using a fluorescence laser-imaging plate reader (FLIPR; Molecular Devices). Briefly, MIN6 cells cultured in 384-well plates were incubated for 1 h with 4 μM fluo-3/AM (Molecular Probes) and 0.04% pluronic acid in physiological Locke's buffer (154 mM NaCl, 5.6 mM KCl, 1.0 mM MgCl2, 2.3 mM CaCl2, 8.6 mM Hepes, 5.6 mM glucose, and 0.1 mM glycine [pH 7.4]). After incubation, MIN6 cells were washed with Locke's buffer by using an automated cell washer to remove extracellular dye. MIN6 cells were treated with compounds at the indicated concentrations. These cells were excited at 488 nm and Ca^2+-bound fluo-3 emission was recorded at 500-560 nm.

[6] = tested on: growth-arrested R7T1 β cells; assay: Microarray analysis of gene expression; format: cell-based, mouse
Procedure: RNA extraction from R7T1 β-cells treated with compounds at the indicated time points is performed using RNeasy kits (Qiagen). The integrity and concentration of RNA is determined by microfluidic analysis on an Experion instrument (BioRad). Standard Affymetrix single amplification is performed using 5 μg total RNA. Standard Affymetrix protocols are used to process Affymetrix MOE430—2 microarrays (Affymetrix). All CEL file images are processed as a single group using gcRMA.

Ras = Ras activation analysis (GST-Raf1 RBD pull-down); format: cell-based, mouse; conditions: growth-arrested R7T1 β cells; for Ras-GTP level / Ras signaling (in words): 0.5 μM
Procedure: Ras-GTP levels are detected using the Active Ras Pull-Down and Detection Kit, following the manufacturer's instructions (Pierce). Briefly, growth-arrested R7T1 β-cells are treated with 0.5 μM of a compound of the invention for an indicated time. Cells are then washed twice with ice-cold phosphate-buffered saline (PBS) and lysed in Lysis/Binding/Wash Buffer containing protease inhibitor cocktail [Roche]. Lysates (500 μg) are clarified by centrifugation and supernatants are incubated with 80 μg of GST-Raf1-RBD fusion protein precoupled to glutathione-Sepharose beads. After incubation for 1 hour at 4° C., beads are washed three times in Lysis/Binding/Wash Buffer, resuspended in Laemmli buffer and boiled. Samples are analyzed by SDS-PAGE (4-20%) followed by transfer to nitrocellulose membrane and then are probed with anti-Ras antibody. Blots are developed using the enhanced ECL system.

- pEC50 ([2]; Homo sapiens, HEK293 cells, luciferase 48 h after compound treatment, read-out: EC50 of induction of Super (8×) TOPFlash reporter): ~5.90
- pIC50 (GSK3-β): 7.19
- kinases profiled that were inhibited by >75% (65 kinases): 7 of 65
Compound: CN1CCN(C(=O)c2ccc(Nc3nccc(-c4cccs4)n3)cc2Cl)CC1 [Example 1, (2-chloro-4-(4-(thiophen-2-yl)pyrimidin-2-ylamino)phenyl)(4-methylpiperazin-1-yl)methanone]
- pEC50 ([1]; Mus musculus, 168 h, CellTiter-Glo after 7-day incubation, read-out: EC50 of replication of growth-arrested R7T1 β cells): ~5.96
- expansion of the pancreatic β-cell population [1]: 2.5 fold
- increase in replicating primary rat β cells (Ki-67/C-peptide) (rat primary β cells; 2 μM): ≈ 2 fold
- increase in rat C-peptide/Ki-67 double positive β-cells (rat primary β cells): 2 fold
- activation of the Wnt reporter compared with DMSO ([2]; 10 μM): 15 fold
- activity on mutated Wnt reporter [3]: no activity
- nuclear β-catenin accumulation (β-catenin): Increased nuclear β-catenin accumulation
- proliferation of HIT-T15 β cells (in words) (HIT-T15 β cells): promote the proliferation
- proliferation of MIN6 β cells (in words) (MIN6 cells [4]): promote the proliferation

Compound: COC(=O)C1=C(C)NC(C)=C([N+](=O)[O-])[C@H]1c1ccccc1C(F)(F)F [Example 2a, (S)-methyl 2,6-dimethyl-5-nitro-4-(2-(trifluoromethyl)phenyl)-1,4-dihydropyridine-3-carboxylate]
- duration of R7T1 proliferation in the presence of the compound [1]: up to 3 weeks
- time to stop of proliferation after removal of the compound [1]: ≤ 1 week
- effect on growth-arrested R7T1 β cells (in words) ([1]; CellTiter-Glo, 7 days): β-cell proliferation
- increase in replicating primary rat β cells (Ki-67/C-peptide) (rat primary β cells; 1 μM): ≈ 2.5 fold
- increase in rat C-peptide/Ki-67 double positive β-cells (rat primary β cells): 2.5 fold
- increase in proliferating human primary β cells (human primary β cells; 1 μM, 72 h, compared with DMSO): ≈ 1.5 fold
- increase in human C-peptide/Ki-67 double positive β-cells (human primary β cells; 72 hours, concentration not given): 1.5 fold
- number of proliferating human primary β cells (in words) (human primary β cells; human islets, 3 days, 2a 1 μM, Ex-4 5 nM where combined): increase the number of proliferating human β cells
- proliferation of HIT-T15 β cells (in words) (HIT-T15 β cells): increased proliferation
- proliferation of MIN6 β cells (in words) (MIN6 cells [4]): increased proliferation
- increase in transient intracellular calcium levels (MIN6 cells [5]; fluo-3, FLIPR): 10 fold
- calcium influx (in words) (MIN6 cells [5]; fluo-3, FLIPR up to 5 min): stimulated
- expression of IRS2 ([6]; 0.5 μM): 1.7 fold
- expression of Ccnd2 (cyclin D2) ([6]; 0.5 μM, 24 h): approximately 1.7 fold
- expression of RasGEFs (RasGRF1, RasGEF1b) (in words) ([6]; 2-6 h after treatment): transcriptionally up-regulated; also recorded: activated
- expression of Ccnd2 (in words) ([6]; 2a 1 μM, Ex-4 5 nM where combined, 2 h to 24 h): increased; also recorded: up-regulated
- expression of β-cell signature markers insulin 1, insulin 2, Pdx1 ([6]; pretreatment versus posttreatment, data not shown): unchanged
- expression of immediate-early genes (Fos, Jun, Egr, Ier families) ([6]; within 30 min, 0.5 μM or 1 μM 2a, Ex-4 5 nM where combined): large increase; also recorded: highly induced
- time of peak Ras-GTP level (Ras): 10 min
- Ras-GTP level / Ras signaling (in words) (Ras): elevated; also recorded: Activation
- Ras-GTP level / Ras signaling (in words) (Ras; listed as (S)-methyl 2,6-dimethyl-5-nitro-4-(2-(trifluoromethyl)phenyl)-1,4-dihydropyridin): activates the Ras pathway

Compound: COc1ccc(CCNc2nc(N3CCCC3CO)nc3ccccc23)cc1 (stereo not drawn) [Example 9, (1-(4-(4-methoxyphenethylamino)quinazolin-2-yl)pyrrolidin-2-yl)methanol]
- expansion of the pancreatic β-cell population [1]: 3 fold

Compound: CC1=C(CC(=O)O)c2cc(F)ccc2/C1=C\c1ccc([S+](C)[O-])cc1 (stereo not drawn) [Sulindac]
- effect on 1a-stimulated β-cell proliferation ([1]; 60 μM Sulindac with 10 μM 1a, CellTiter-Glo after 7 days): abolished
- effect on 1a-stimulated Wnt activation [2]: abolished
